Source: patent US6967196B1, “Sulfonamide compounds and uses thereof” (Bristol-Myers Squibb Company, priority 1999, dated 2005)
Counter-ions that a name gives are not always drawn. Like-named read-outs stand apart in the source and are kept apart here. Blank lines part the entries; values can stand above or below the compound they belong to.

System: amyloid β production in transfected H4 (human neuroglioma) cells stably expressing APP constructs
Assay: In vitro cell-based assay of inhibitors of amyloid β production (ELISA)
Details: amyloid β in medium by ELISA, read-out: ACTIVITY (IC50, inhibition of amyloid β production)
Summary of the method: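 Aβ secreted into the medium was read by sandwich ELISA (monoclonal capture for the Aβ C-terminus, polyclonal detection for the N-terminus) and calibrated on a standard curve. Before this, APP-expressing H4 cells were exposed to compound for ~16 h at an initial 10-100 μM, with actives then retested in dose-response.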

[1] = transfected H4 cells stably expressing APP, approximately 16 hours incubation, Table B
[2] = Homo sapiens, 16 h, transfected H4 cells stably expressing APP, approximately 16 hours incubation
[3] = transfected H4 cells stably expressing APP, approximately 16 hours incubation
[4] = transfected H4 cells stably expressing APP, approx. 16 h incubation

IC50 [2]: > 500 nM
Compound: COc1ccc(S(=O)(=O)N(Cc2ccccc2OCCCN2CCCCC2)c2cc(F)ccc2F)cc1 [Example 879, N-(2,5-difluorophenyl)-4-methoxy-N-{2-[3-(1-piperidinyl)propoxy]benzyl}benzenesulfonamide hydrochloride]

IC50 (Homo sapiens, 16 h, transfected H4 cells stably expressing APP constructs, approximately 16 hours incubation): ≤ 25 nM
Compound: C[C@H](CCCS(=O)(=O)N(C)C)N(c1cc(Cl)ccc1CO)S(=O)(=O)c1ccc(Cl)cc1 [Example 1234, 4-chloro-N-[5-chloro-2-(hydroxymethyl)phenyl]-N-[4-[(dimethylamino)sulfonyl]-1(R)-methylbutyl]benzenesulfonamide]

IC50 (Homo sapiens, 16 h, transfected H4 cells expressing APP, approximately 16 hours incubation): 100 to 500 nM
Compound: CCCCNC(=O)[C@@H](C)N(c1cc(Cl)ccc1F)S(=O)(=O)c1ccc(Cl)cc1 [Example 1299]

IC50 [2]: > 500 nM
Compound: O=S(=O)(c1ccc(Cl)cc1)N(Cc1ccccc1OCCCBr)c1ccccc1 [Example 1039, N-[2-(3-bromopropoxy)benzyl]-4-chloro-N-phenylbenzenesulfonamide]

IC50 (Homo sapiens, 16 h, transfected H4 cells stably expressing APP, approx. 16 h incubation): 100 to 500 nM
Compound: O=S(=O)(c1ccc(Cl)cc1)N(Cc1ccccc1OCCCN1CCCC1)c1ccccc1 [Example 718, 4-chloro-N-phenyl-N-{2-[3-(1-pyrrolidinyl)propoxy]benzyl}benzenesulfonamide hydrochloride]

IC50 [2]: > 500 nM
Compound: CC(C)N(C(=O)N(C)CCOc1ccccc1C(C)N(c1cc(F)ccc1F)S(=O)(=O)c1ccc(Cl)cc1)C(C)C (stereo not drawn) [Example 888, 4-chloro-N-(2,5-difluorophenyl)-N-[1-(2-{2-[[(diisopropylamino)carbonyl](methyl)amino]ethoxy}phenyl)ethyl]benzenesulfonamide]

The next lines start with the compound.

Compound: CNC(=O)COc1ccccc1C(C)N(c1cc(F)ccc1F)S(=O)(=O)c1ccc(Cl)cc1 (stereo not drawn) [Example 381, [2-(1-{[(4-Chlorophenyl)sulfonyl]-2,5-difluoroanilino}ethyl)phenoxy]-N-methylacetamide]
IC50 [1]: 50 to 100 nM

Compound: N-{3-[2-(1-{[(4-chlorophenyl)sulfonyl]-2,5-difluoroanilino}ethyl)phenoxy]propyl}-2,3,4,5,6-pentafluoro-N-methylbenzamide [Example 828]
IC50 [3]: 100 to 500 nM

Compound: N-{2-[2-(1-{[(4-chlorophenyl)sulfonyl]-2,5-difluoroanilino}ethyl)phenoxy]ethyl}-N-ethyltetradecanamide [Example 928]
IC50 [3]: > 500 nM

Compound: isobutyl 3-[2-(1-{[(4-chlorophenyl)sulfonyl]-2,5-difluoroanilino}ethyl)phenoxy]propyl(methyl)carbamate [Example 677]
IC50 [4]: 100 to 500 nM

Compound: N-{3-[2-(1-{[(4-chlorophenyl)sulfonyl]-2,5-difluoroanilino}ethyl)phenoxy]propyl}-4-methoxy-N-methylbenzamide [Example 652]
IC50 [4]: 100 to 500 nM

Compound: O=S(=O)(c1ccc(Cl)cc1)N(Cc1ccccc1OCCCN1CCC(Cc2ccccc2)CC1)c1ccccc1 [Example 290, N-{2-[3-(4-benzyl-1-piperidinyl)propoxy]benzyl}-4-chloro-N-phenylbenzenesulfonamide Hydrochloride]
IC50 [1]: 25 to 50 nM
